Results as given in ChEMBL document CHEMBL1156275, “Thioether acetamides as P3 binding elements for tetrahydropyrido-pyrazole cathepsin S inhibitors” (Bioorg Med Chem Lett, 2010).

What was measured:
Cathepsin S [1] = target: T1, Cathepsin S (Homo sapiens, UniProt P25774); experiment: Inhibition of cathepsin S in human JY cells assessed as accumulation of invariant chain p10li after 24 hrs by Western blot analysis; type: cell-based
Cathepsin S [2] = target: T1, Cathepsin S; experiment: Inhibition of human recombinant cathepsin S expressed in baculovirus expression sytem after 15 mins by FRET assay

T1 sequence (P25774 whole entry): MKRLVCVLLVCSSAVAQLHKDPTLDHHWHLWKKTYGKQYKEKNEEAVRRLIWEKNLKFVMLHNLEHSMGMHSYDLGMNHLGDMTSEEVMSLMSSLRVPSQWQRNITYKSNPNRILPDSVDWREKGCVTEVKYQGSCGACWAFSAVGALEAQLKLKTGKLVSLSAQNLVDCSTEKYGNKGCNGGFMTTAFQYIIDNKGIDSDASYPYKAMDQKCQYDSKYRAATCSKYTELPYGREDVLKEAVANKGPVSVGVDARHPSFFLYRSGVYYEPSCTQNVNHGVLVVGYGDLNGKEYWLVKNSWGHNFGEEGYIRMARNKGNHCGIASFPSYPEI

Structure (SMILES)	IC50 (Cathepsin S [1])	IC50 (Cathepsin S [2])
O=C(CSc1cc(-c2nn(CC(O)CN3CCC(c4ccccn4)CC3)c3c2CNCC3)ccc1C(F)(F)F)N1CCOCC1 (racemic)	1.68 µM	–
CS(=O)(=O)N1CCc2c(c(-c3ccc(C(F)(F)F)c(SCC(=O)N4CCCCC4)c3)nn2CC(O)CN2CCC(c3ccccn3)CC2)C1 (stereo unspecified)	1.54 µM	–
CS(=O)(=O)N1CCc2c(c(-c3ccc(C(F)(F)F)c(SCC(=O)N4CCCCC4)c3)nn2CCCN2CCC(N3CCCC3=O)CC2)C1	3.92 µM	0.07 µM
CS(=O)(=O)N1CCc2c(c(-c3ccc(C(F)(F)F)c(SCC(=O)N4CCOCC4)c3)nn2CCCN2CCC(N3CCCC3=O)CC2)C1	0.45 µM	0.02 µM
O=C(CSc1cc(-c2nn(CC(O)CN3CCC(c4ccccn4)CC3)c3c2CN(C(=O)CO)CC3)ccc1C(F)(F)F)N1CCOCC1 (racemic)	0.16 µM	–
CC(=O)N1CCc2c(c(-c3ccc(C(F)(F)F)c(SCC(=O)N4CCCC4)c3)nn2CC(O)CN2CCC(C(C)(C)O)CC2)C1 (racemic)	0.11 µM	–
CS(=O)(=O)N1CCc2c(c(-c3ccc(C(F)(F)F)c(SCC(=O)N4CC[C@@H](O)C4)c3)nn2CC(O)CN2CCC(c3ccccn3)CC2)C1 (mixture of isomers)	0.03 µM	0.007 µM
CS(=O)(=O)N1CCc2c(c(-c3ccc(C(F)(F)F)c(SCC(=O)N4CCC(CO)CC4)c3)nn2CCCN2CCC(N3CCCC3=O)CC2)C1	0.34 µM	–
CN1CCN(C(=O)CSc2cc(-c3nn(CCCN4CCC(N5CCCC5=O)CC4)c4c3CN(S(C)(=O)=O)CC4)ccc2C(F)(F)F)CC1	0.11 µM	0.74 µM
CC(=O)N1CCc2c(c(-c3ccc(C(F)(F)F)c(SCC(=O)N4CCCC4)c3)nn2CC(O)CN2CCC(C)CC2)C1 (racemic)	0.08 µM	0.18 µM
COc1ccccc1C1CCN(CC(O)Cn2nc(-c3ccc(C(F)(F)F)c(SCC(=O)N4CCCC4)c3)c3c2CCNC3)CC1 (racemic)	0.12 µM	–
CC1CCCN1C(=O)CSc1cc(-c2nn(CCCN3CCC(N4CCCC4=O)CC3)c3c2CN(S(C)(=O)=O)CC3)ccc1C(F)(F)F (stereo unspecified)	6 µM	–
CS(=O)(=O)N1CCc2c(c(-c3ccc(C(F)(F)F)c(SCC(=O)N4CC[C@H](O)C4)c3)nn2CC(O)CN2CCC(c3ccccn3)CC2)C1 (stereo partly specified)	0.03 µM	0.007 µM
CS(=O)(=O)N1CCc2c(c(-c3ccc(C(F)(F)F)c(SCC(=O)N4CCCC4)c3)nn2CC(O)CN2CCC(c3ccccn3)CC2)C1 (racemic)	0.47 µM	0.001 µM
COc1ccccc1C1CCN(CC(O)Cn2nc(-c3ccc(C(F)(F)F)c(SCC(=O)N4CCOCC4)c3)c3c2CCN(S(C)(=O)=O)C3)CC1 (racemic)	0.19 µM	–
CS(=O)(=O)N1CCc2c(c(-c3ccc(C(F)(F)F)c(SCC(=O)N4CCC(O)C4)c3)nn2CCCN2CCC(N3CCCC3=O)CC2)C1 (racemic)	0.52 µM	–
CS(=O)(=O)N1CCc2c(c(-c3ccc(C(F)(F)F)c(SCC(=O)N4CCCC4)c3)nn2CCCN2CCC(C(=O)N3CCCC3)CC2)C1	0.28 µM	0.04 µM
COc1ccccc1C1CCN(CC(O)Cn2nc(-c3ccc(C(F)(F)F)c(SCC(=O)N4CCOCC4)c3)c3c2CCN(C(=O)CO)C3)CC1 (racemic)	0.48 µM	–
CS(=O)(=O)N1CCc2c(c(-c3ccc(C(F)(F)F)c(SCC(=O)N4CCOCC4)c3)nn2CC(O)CN2CCC(c3ccccc3F)CC2)C1 (racemic)	3.13 µM	0.01 µM
COc1ccccc1C1CCN(CC(O)Cn2nc(-c3ccc(C(F)(F)F)c(SCC(=O)N4CCOCC4)c3)c3c2CCNC3)CC1 (racemic)	1.85 µM	0.19 µM
CCN1CCc2c(c(-c3ccc(C(F)(F)F)c(SCC(=O)N4CCCC4)c3)nn2CC(O)CN2CCC(c3ccccn3)CC2)C1 (racemic)	–	0.25 µM
CS(=O)(=O)N1CCc2c(c(-c3ccc(C(F)(F)F)c(SCC(=O)N4CCOCC4)c3)nn2CC(O)CN2CCC(c3ccccn3)CC2)C1 (racemic)	0.38 µM	–
C[C@H]1CCCCN1CC(O)Cn1nc(-c2ccc(C(F)(F)F)c(SCC(=O)N3CCOCC3)c2)c2c1CCN(S(C)(=O)=O)C2 (mixture of isomers)	10 µM	0.3 µM
CS(=O)(=O)N1CCc2c(c(-c3ccc(C(F)(F)F)c(SCCNC(=O)Cc4ccccc4)c3)nn2CC(O)CN2CCC(N3CCCC3=O)CC2)C1 (stereo unspecified)	> 10 µM	–
CS(=O)(=O)N1CCc2c(c(-c3ccc(C(F)(F)F)c(SCC(=O)N4CCCC4)c3)nn2CCCN2CCC(N3CCCC3=O)CC2)C1	1.97 µM	–
COc1ccccc1C1CCN(CC(O)Cn2nc(-c3ccc(C(F)(F)F)c(SCC(=O)N4CCOCC4)c3)c3c2CCN(C(C)=O)C3)CC1 (racemic)	0.9 µM	–
CS(=O)(=O)N1CCc2c(c(-c3ccc(C(F)(F)F)c(SCC(=O)NCc4ccccc4)c3)nn2CCCN2CCC(N3CCCC3=O)CC2)C1	10 µM	–
CC1CCN(C(=O)CSc2cc(-c3nn(CCCN4CCC(N5CCCC5=O)CC4)c4c3CN(S(C)(=O)=O)CC4)ccc2C(F)(F)F)CC1	8 µM	0.21 µM
CS(=O)(=O)N1CCc2c(c(-c3ccc(C(F)(F)F)c(SCCN4CCCCC4)c3)nn2CCCN2CCC(N3CCCC3=O)CC2)C1	0.04 µM	–
